Four compounds from patent US6407093B1, “1,4-Diazacycloheptane derivatives for the treatment of neurological disorders” (Astrazeneca UK Limited, priority 1998, dated 2002) can be followed below.

Counter-ions that a name gives are not always drawn.

In data set [1] the target is T1, [3H]-emopamil binding site (Cavia porcellus, UniProt Q60490).
T1 construct: Guinea pig liver membranes: 40 mg/mL original wet weight; from tissue; host or cells: guinea pig liver membranes
T1 sequence (Q60490 1-229): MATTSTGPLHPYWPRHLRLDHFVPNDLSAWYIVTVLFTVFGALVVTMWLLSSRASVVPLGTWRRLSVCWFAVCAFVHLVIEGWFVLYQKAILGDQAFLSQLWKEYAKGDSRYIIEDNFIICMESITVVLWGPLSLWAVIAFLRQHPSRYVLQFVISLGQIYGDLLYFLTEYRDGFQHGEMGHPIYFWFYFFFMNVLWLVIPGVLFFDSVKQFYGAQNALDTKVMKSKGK
Put plainly: (−)-3H-Emopamil binding to guinea pig liver membranes. The settings on record: 0.96 nM (−)-3H-emopamil, 60 minutes at 37° C. As for the experimental part: -^3H-Emopamil Binding to Guinea Pig Liver Membranes
The method of (−)-^3H-emopamil binding was a modification of Zech, C., Staudinger R., Mühlbacher, J. and Glossmann, H. Novel sites for phenylalkylamines: characterization of a sodium-sensitive drug receptor with (−)-^3H-emopamil. Eur. J. Pharm. 208: 119-130, 1991.
The reaction mixture contained:
Assay buffer: 10 mM Tris-HCl, 0.1 mM phenylmethylsulfonyl fluoride (PMSF), 0.2% bovine serum albumin (BSA), pH 7.4 at 4° C.
Radioligand: 0.96 nM (−)-^3H-emopamil (Amersham).
Guinea pig liver membranes: 40 mg/mL original wet weight.
This mixture was incubated for 60 minutes at 37° C. The incubation was terminated by filtering with a Brandel Cell Harvester over Whatman GF/C filters that had been soaked for at least 120 minutes in 0.3% polyethylenimine (PEI) and washed three times with 5 mL of wash buffer containing 10 mM Tris-HCl, 10 mM MgCl2, 0.2% BSA, pH 7.4 at 25° C. Specific binding was defined with 10 μM emopamil.
Guinea-pig Liver Membrane Preparation
Male guinea pigs were sacrificed by CO2 asphyxiation with dry ice. The livers were quickly excised and weighed and rinsed in membrane preparation buffer containing 10 mM Hepes, 1 mM Tris base-EDTA, 250 mM sucrose, pH 7.4. The livers were then minced, homogenized in 10 times volume with a motor driven Teflon-glass homogenizer with three strokes on ice. […]

Data set [2] addresses L-type voltage sensitive calcium channels (3H-D888 binding site). Nature of the data set: 3H-D-888 binding to rat brain cortical membranes. The note with it: 1 nM 3H-D888, rat cortical membranes, 60 minutes at 25° C.; in vitro selectivity test. As to the method: -^3H-D-888 Binding to Rat Brain Cortical Membranes
The method of ^3H-D-888 binding was a modification of Reynolds, I. J., Snowman, A. M. and Synder, S. H. (−)-[^3H] Desmethoxyverapamil labels multiple calcium channel modular receptors in brain and skeletal muscle membranes: differentiation by temperature and dihydropyridines. J. Pharmacol. Exp. Ther. 237: no.3, 731-738, 1986.
The assay tubes contained the following: assay buffer: 50 mM Hepes, 0.2% BSA, pH 7.4 radioligand: 1ηM ^3H-D888 (Amersham) rat cortical membranes: 6 mg/ml original wet weight
This mixture was incubated for 60 minutes at 25° C. The assay was terminated by filtering with a Brandel Cell Harvester over Whatman GF/C filters that had been soaked for at least 120 minutes in 0.3% polyethylenamine (PEI) and washed three times with 5 mL of wash buffer containing 20 mM Hepes, 20 mM MgCl2, pH 7.4. Specific binding was measured with 10 μM methoxyverapamil (D-600). This assay was used to determine in vitro selectivity of compounds vs. L-type voltage sensitive calcium channels, i.e high affinity for the ^3H-D888 binding site would show a lack of selectivity.
Rat Brain Cortical Membrane Preparation
Male Sprague-Dawley Rats were sacrificed by decapitation and the brains were quickly excised. The cerebellum and brain stem were removed and discarded; and the rest of the brain was rinsed in 320 mM sucrose. […]

Compound `CN1CCCN(C2CCSc3ccccc32)CC1` (centres unmarked) (as salt: maleate) [Example 1, 1 -Methyl-4-(3,4-dihydro-2H-benzothiopyran-4-yl)homopiperazine] displayed a melting point of 117 to 118 °C. On to `CC(C)CN1CCCN(C2CCSc3ccccc32)CC1` (centres unmarked) (as salt: maleate) [Example 7, 1-Isobutyl-4-(3,4-dihydro-2H-benzothiopyran-4-yl)homopiperazine], for which the melting point lay within 148.2 to 148.6 °C. For the compound `CN1CCCN([C@H]2CCSc3ccccc32)CC1` [Example 5, S(+) 1-Methyl-4-(3,4-dihydro-2H-benzothiopyran-4yl)homopiperazine], the IC50 is 0.009 µM in data set [1] and approximately 15 µM in data set [2]. `CN1CCCN([C@H]2CCSc3ccccc32)CC1` (as salt: hydrochloride) [Example 5, S(+) 1-Methyl-4-(3,4-dihydro-2H-benzothiopyran-4yl)homopiperazine] had a melting point of 208 to 209 °C.

Usually melting point stands for the temperature of the solid-liquid transition. As a reminder, the IC50 is the midpoint of a concentration-inhibition curve.
